Laboratory results as given in BindingDB's records for doi:10.1073/pnas.90.8.3452 (The Scripps Research Institute, 1993).

Key:
[1] = molecular target: 5-hydroxytryptamine receptor 5B (Rattus norvegicus, UniProt P35365)
[2] = molecular target: 5-hydroxytryptamine receptor 5A (Rattus norvegicus, UniProt P35364)
5-hydroxytryptamine receptor 5A, sequence (P35364 whole entry): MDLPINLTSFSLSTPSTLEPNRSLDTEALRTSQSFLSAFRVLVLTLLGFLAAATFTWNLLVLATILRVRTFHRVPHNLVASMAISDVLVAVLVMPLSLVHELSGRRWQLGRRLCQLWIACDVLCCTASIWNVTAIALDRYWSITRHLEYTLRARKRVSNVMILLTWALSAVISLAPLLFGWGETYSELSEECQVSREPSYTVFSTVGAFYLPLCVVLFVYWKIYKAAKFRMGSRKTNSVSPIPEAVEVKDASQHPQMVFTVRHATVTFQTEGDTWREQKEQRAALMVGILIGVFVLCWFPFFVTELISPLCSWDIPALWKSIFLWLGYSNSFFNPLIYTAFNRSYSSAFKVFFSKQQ

5-hydroxytryptamine receptor 5B, sequence (P35365 whole entry): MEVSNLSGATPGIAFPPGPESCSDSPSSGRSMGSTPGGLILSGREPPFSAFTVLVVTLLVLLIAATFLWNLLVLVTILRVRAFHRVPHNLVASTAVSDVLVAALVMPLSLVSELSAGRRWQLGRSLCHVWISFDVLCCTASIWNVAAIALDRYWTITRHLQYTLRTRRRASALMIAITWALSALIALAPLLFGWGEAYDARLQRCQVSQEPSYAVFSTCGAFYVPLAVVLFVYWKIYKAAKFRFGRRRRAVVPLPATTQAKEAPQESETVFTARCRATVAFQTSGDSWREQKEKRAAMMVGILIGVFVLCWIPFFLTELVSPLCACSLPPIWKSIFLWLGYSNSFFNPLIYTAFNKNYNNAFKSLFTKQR

| SMILES | Ki [1] | Ki [2] |
| --- | --- | --- |
| COc1ccc2[nH]cc(CCNC(C)=O)c2c1 | 1 µM | 1 µM |
| CN1C[C@H](CNC(=O)OCc2ccccc2)C[C@@H]2c3cccc4c3c(cn4C)C[C@H]21 [METERGOLINE] | 1 µM | 1 µM |
| CSc1ccc2c(c1)C(N1CCN(C)CC1)Cc1ccccc1S2 (stereo unspecified) [methanesulfonic acid;1-methyl-4-(3-methylsulfanyl-5,6-dihydrobenzo[b][1]benzothiepin-5-yl)piperazine] | – | 0.145 µM |
| COc1cc(N)c(Cl)cc1C(=O)NC1CN2CCC1CC2 (stereo unspecified) [ZACOPRIDE,R] | 1 µM | 1 µM |
| NCCc1c[nH]c2ccc(O)cc12 [[3H]-5-HT] | – | 1.33 µM |
| COc1cc(CC(C)N)c(OC)cc1I (stereo unspecified) [[125I]2,5-dimethoxy-4-iodoamphetamine] | 1 µM | 1 µM |
| CCCN(CCC)C1CCc2cccc(O)c2C1 (stereo unspecified) | 1 µM | 1 µM |
| NCCc1c[nH]c2ccc(C(N)=O)cc12 [[3H]-5-carboxamidotryptamine] | 0.0126 µM | – |
| NCC(O)c1ccc(O)c(O)c1 (stereo not drawn) [Noradrenaline,(+)] | 1 µM | 1 µM |
| NCCc1ccc(O)c(O)c1 | 1 µM | 1 µM |
| CC[C@@H](CO)NC(=O)[C@@H]1C=C2c3cccc4c3c(cn4C)C[C@H]2N(C)C1 | 0.196 µM | 1 µM |
| CN1C[C@@H](NS(=O)(=O)N(C)C)C[C@@H]2c3cccc4c3c(cn4C)C[C@H]21 [MESULERGINE] | 1 µM | 1 µM |
